Key:
[1] = tested on: Spontaneously Hypertensive Rats; assay: Effect of NaOGe on blood pressure of spontaneously hypertensive rats; type: in vivo, rats (SHR strain); settings: in words
Procedure: To investigate the effect of NaOGe on hypertension, 100mg/kg/day of sodium salt of OGe had been administered to spontaneously hypertensive rats (SHR strain) and estimated the change of blood pressure.

[2] = Clinical use: therapy of dysfunction liver (hepatitis); type: in vivo, patients
Procedure: In patients receiving 100mg/body/day of the drug, the improvement of alkali phosphatase, SGOT, SGPT, ASAC and α-GPT and abnormal fraction of serum-protein was observed.

Clinical use: epilepsy = type: in vivo, patients
Procedure: A large amount therapy, 100-500mg/body/day in a dosis, is performed. […] In these points, the patients are humanly matured.

AH66 = assay: Effect on ascites hepatoma AH66 in rats; type: in vivo, Doryu rats; settings: 100mg/kg/day for 10 days, all control rats died
Procedure: (§1) Dr. H. Sato, of our research group, investigated the antitumor effect of NaOGe by using several strains of ascites hepatoma in rats. For this investigation, the following […] strains of hepatoma were used: AH13, AH130, AH272, AH44, AH66F, AH7974, AH41C, AH60C and AH109A. 10^7 cells of each strain tumor were inoculated intravenously into the Doryu rats, 72 hours later, 100mg/kg/day of OGe was administered for 10 days.

[3] = Clinical use: effect in obstetrics; type: in vivo, patients
Excerpt: The drug is particularly-effective on various symptoms including morning sickness caused by pregnance.

AH44 = assay: Effect on ascites hepatoma AH44 in rats; type: in vivo, Doryu rats; settings: 100mg/kg/day for 10 days, all control rats died
Procedure: as §1

[4] = Clinical use: allergic diseases; type: in vivo, patients
[5] = Effect of NaOGe on essential hypertension in human being; type: in vivo; settings: in words
Procedure: Dr. A. Ishikawa, of our research group, has investigated the effect of NaOGe on essential hypertension in human being. The adminstration of 40-150 mg/body of NaOGe was divided orally in two or three doses. The duration of drug administration was at the least 1 month, at the most 12 months. The following results are obtained:
(§2) *Numbers showing good response / total numbers

[6] = Clinical use: general fatigue, malaise and asthenia; type: in vivo
[7] = Clinical use: digestive system; type: in vivo
Excerpt: The effect is found clearly by X-ray examination.

Clinical use: migrain = type: in vivo
[8] = Clinical use: liver cirrhose; type: in vivo, patients; settings: 100-200mg/body/day
[9] = Acute toxicity of NaOGe in rats; type: in vivo, Rats (Wistar strain); settings: rat, in vivo, po; per os, male
Excerpt: (§3) Acute Toxicities of NaOGe according to the […]

Rats (Wistar strain) = assay: Acute toxicity of NaOGe in rats; type: in vivo; settings: per os, female
Excerpt: as §3

[10] = Clinical use: kidney function; settings: in vivo
[11] = Clinical use: loss of autonomic nervous system function; type: in vivo, patients
[12] = Clinical use: protective effect of drug administration for long periods; type: in vivo; settings: 50mg/body/day administered with the others, long-term
Clinical use: depression = type: in vivo, patients; settings: about 100mg/body/day oral
Excerpt: In moderate depression, about at the 8th day after drug administration, the improvement is observed.

[13] = Clinical use: schizophrenia; type: in vivo, patients; settings: 200-300mg/body/day oral
Procedure: The oral administration of 200mg/body/day ~ 300mg/body/day is necessary.

Clinical use: hepatoma = settings: in vivo
Hygroscopic property = type: physicochemical
[14] = Effect of NaOGe on Diabetes Mellitus in human being; type: in vivo; settings: in words
Procedure: The duration of drug administration was at the least 1 month, at the most 12 months. The following results are obtained:
as §2
Dr. A. Ishikawa of our research group has investigated the effect of NaOGe on Diabetes Millitus in human being. The administration of 40-150 mg/kg body of NaOGe was divided orally in two or three doses.

infants = assay: Clinical use: infants; type: in vivo
[15] = Effect of NaOGe on development of amyloidosis in mice; type: in vivo, ICR strain mice; settings: in words
Procedure: From the above results, it was presumed that OGe might act not only hypertension but some of metabolic changes related to aging. Thus, the influence of NaOGe on the development of amyloidosis in mice was tested. The ICR strain mice had been treated with oral administration of NaOGe for 22 months. After that, all mice were sacrificed and the development of amyloidosis in several important organs was investigated.

[16] = Clinical use: acceleration of heart function; type: in vivo, patients
[17] = Clinical use: peripheral neuritis; type: in vivo, patients; settings: 100mg/body/day
ascites hepatoma = assay: Direct cytocidal action of NaOGe; design: species or system rats; settings: in words
Mice (ICR strain) = assay: Acute toxicity of NaOGe in mice; type: in vivo; settings: per os, female
Excerpt: as §3

[18] = Acute toxicity of NaOGe in mice; type: in vivo, Mice (ICR strain); settings: mouse, in vivo, po; per os, male
Excerpt: as §3

[19] = Clinical use: improvement of peripheral circulation; type: in vivo, patient
Excerpt: This is observed by plethysmography.

[20] = 75mg/body/day, asthma bronchitis and chronic exanthema
[21] = cadmium chloride 2.0 mg/kg iv alone, 8th day of gestation

O=C(O)C[CH2][Ge]([OH])([OH])[OH] [OGe, 3-trihydroxygermylpropionic acid]
effect on hypertension in rats [1]: highly effective on hypertension in rats and the effect appears gradually

O=C([O-])C[CH2][Ge]([OH])([OH])[OH].[Na+] [NaOGe, Sodium 3-trihydroxygermylpropionate]
alkali phosphatase, SGOT, SGPT, ASAC and α-GPT and abnormal fraction of serum-protein ([2]; 100mg/body/day): improvement | spontaneous cure of acute and chronic hepatitis ([2]; human, in vivo): acceleration of the spontaneous cure | EEG: epilepsy specific spike (Clinical use: epilepsy; 100-500mg/body/day oral): the loss of epilepsy specific spike is found | EEG: slow burst (Clinical use: epilepsy; 100-500mg/body/day oral): the inhibition of slow burst is not observed | drowsiness (Clinical use: epilepsy; 100-500mg/body/day oral): complete lack of drowsiness | grade of convulsion (Clinical use: epilepsy; 100-500mg/body/day oral): becomes lighter | interval of convulsion appearance (Clinical use: epilepsy; 100-500mg/body/day oral): becomes gradually longer | learning and working ability (Clinical use: epilepsy; 100-500mg/body/day oral): the improvement of learning -- and working -- ability is observed | absence of symptoms (Clinical use: epilepsy; continued oral administration, 100-500mg/body/day): many patients did not show any symptom | treated rats showing a complete cure (AH66): half | effect in serious patients indicated for artificial pregnance stopping ([3]; 100-200mg/body/day): effective one some serious patients | symptoms including morning sickness ([3]; human, in vivo): particularly-effective | treated rats showing a complete cure (AH44): half | condition 6 months to 1 year after drug administration ([4]; 75mg/body/day, 6 months to 1 year): many patients show a condition looking like a complete cure | frequency of symptom-appearance [4, 20]: decrease of the frequency of symptom-appearance | interval of symptom appearance [4, 20]: becomes longer | use of adrenal cartex hormone [4, 20]: decrease of adrenal cartex hormone or stop of the hormone | drug allergic reaction ([4]; patients with drug allergy, given with an allergenic drug): any drug allergic reaction is not observed | effect in treatment and prevention of essential hypertension [5]: effective in the treatment and the prevention of essential hypertension | symptoms of general fatigue, malaise and asthenia ([6]; 75mg/body/day): loss of the symptoms of general fatigue, malaise and asthenia | symptoms due to neurosis ([6]; increase of dose to 75mg/body/day): early the disappearance of the symptoms due to neurosis | Malformation produced by cadmium chloride (golden hamster; NaOGe 40.0mg/kg, simultaneous intravenous injection, in words): prevented completely | subjective symptoms and ulcers ([7]; X-ray examination): loss of subjective symptoms and the cure of ulcers | effect on constipation ([7]; in vivo): effective on constipation | movement of stomach and intestine ([7]; in vivo): modification of movement of stomach and intestine | effect compared with other therapy ([7]; ulcers): higher than any other therapy | effect on migraine (Clinical use: migrain; 75mg/body/day): effective on migraine | symptoms caused by brain-anemia (Clinical use: migrain; in vivo): shows the effect on the symptoms caused by brain-anemia | ascites [8]: beginning of the loss of ascites | liver function [8]: acceleration of the recovery of liver function | progress of liver dysfunction [8]: stopped the progress of liver dysfunction | LD50 [9]: > 10000 mg/kg | LD50 (Rats (Wistar strain)): over 10 g/kg | appearance of proteiureia [10]: the appearance of proteiureia is inhibited | diuretic effect [10]: diuretic effect is observed | effect in patients resistant to other drugs ([11]; 75mg/body/day oral): shows the effect on many patients showing resistance against any other drugs | objective and functional abnormality of various organs controlled by autonomic nervous system ([11]; after drug administration): are not found after drug administration | side effects of tranquilizers and anti-tuberculosis drugs [12]: decrease of side effects | depressive status (Clinical use: depression): improvement of depressive status | drowsiness (Clinical use: depression): does not give any drowsiness | initiation of autonomy (Clinical use: depression): clearly observed after drug administration | hullucination [13]: the disappearance of hullucination is accelerated | self-recognization of the disease [13]: clearly found rather early after drug administration | working ability [13]: The working ability is observed | life span (Clinical use: hepatoma): increase of life span | hygroscopic property (Hygroscopic property): hydroscopic | effect on Diabetes Mellitus [14]: effective on Diabetes Mellitus | actonic vomiting and autointoxication (infants; 20 - 50 mg/body/day): effective on actonic vomiting and autointoxication of infants | body weight (infants; 100-200mg/body/day, infants showing decrease of body weight): increase | development of amyloidosis ([15]; 30mg/kg/day): a clear prevention of the development was observed | development of amyloidosis ([15]; 300mg/kg/day): completely inhibited the development of amyloidosis | blood-stream ([16]; 75-150mg/body/day): increase of blood-stream | ECG pattern ([16]; 75-150mg/body/day, patients with blood-loss ECG symptom): improvement of ECG pattern | effect on blood-vessels ([16]; from the effect on the eye ground symptoms): stabilizing effect of blood-vessels | subcutaneous bleeding of legs and hands ([16]; old people): inhibited | effect on peripheral neuritis [17]: become to enjoy normal daily life without serious pain | direct cytocidal action (ascites hepatoma): does not possess direct cytocidal action | LD50 (Mice (ICR strain)): over 10 g/kg | LD50 [18]: > 10000 mg/kg | cold exanthema ([19]; human, in vivo): protects the appearance of cold exanthema | peripheral circulating blood amount ([19]; single administration of 50 mg/body/day, plethysmography): increase of peripheral circulating blood amount

O=C([O-])C[CH2][Ge]([OH])([OH])[OH].[NH4+] [Ammonium 3-trihydroxygermylpropionate]
hygroscopic property (Hygroscopic property): hydroscopic

[Cl][Cd][Cl] [Cadmium chloride]
teratogenic action (golden hamster; 2.0mg/kg intravenously, 8th day of gestation, in words): produces cleft palate, exencepalia, harelips and open-eye lid | Living fetuses (golden hamster; [21]): 4.9% | Malformation (golden hamster; [21]): 25.5% | Resorbed embryos (golden hamster; [21]): 51.0%

— patent US4066678A (priority 1975, dated 1978)
